Reference: patent US20250032623A1, “HETEROBIFUNCTIONAL COMPOUNDS AND THEIR USE IN TREATING DISEASE” (HALDA THERAPEUTICS OPCO, INC., priority 2021, published 2025)
pIC50: −log10 of the molar value. Like-named read-outs stand apart in the source and are kept apart here.

What was measured:
[1] = test system: HEK293 cells; assay: Cellular growth inhibition assay (CellTiter-Glo), HEK293 cells; format: cell-based; settings: three days compound treatment, CellTiter-Glo 2.0, read-out: CTG HEK293 GI50
Summary of the method: (§1)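 GI50 derived by four-parameter regression of luminescence (CellTiter-Glo 2.0) at Day 0 and Day 3, normalized to DMSO wells. Cells (HeLa, HEK293; 500/well, DMEM plus 10% FBS) were dosed with compound dilutions 24 h post-seeding and exposed for three days at 37 °C.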

[2] = test system: HeLa cells; assay: Cellular growth inhibition assay (CellTiter-Glo), HeLa cells; format: cell-based; settings: three days compound treatment, CellTiter-Glo 2.0, read-out: CTG HELA GI50
Summary of the method: as §1

[3] = target: T1, KRAS G12C (Homo sapiens, UniProt P01116, G12C); assay: KRAS G12C nucleotide exchange assay (SOS1 mediated, HTRF); format: biochemical; settings: 1 hr pre-incubation at RT, read-out: IC50 (inhibition of KRas G12C)
T1 construct: Kras (aa 2-169), GST; purchased Reaction Biology Corporation (RBC)
T1 sequence (P01116 2-169 isoform P01116-2 G12C): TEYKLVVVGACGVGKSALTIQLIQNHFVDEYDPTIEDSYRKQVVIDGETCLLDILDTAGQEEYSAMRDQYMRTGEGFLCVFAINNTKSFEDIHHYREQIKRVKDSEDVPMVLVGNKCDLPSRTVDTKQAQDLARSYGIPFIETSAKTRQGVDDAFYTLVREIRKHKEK
Description: Exemplary compounds were tested for ability to inhibit KRas G12C.
KRAS target engagement (IC50 determination) was performed using a KRAS G12C nucleotide exchange assay (Reaction Biology Corporation). Specifically, compounds were tested against KRAS G12C in 10-point concentration IC50 mode with 3-fold serial dilution at a starting concentration of 10 μM. ARS1620 was used as a control. Compounds were pre-incubated with protein for 1 hr at RT. Parameters for the assay were:
In the method, Kras was mixed with a-GST Tb antibody (1.5× solution) and […] was delivered to reaction wells. Compounds were delivered using acoustic dispenser (Echo, Labcyte). Kras/aGST-Tb Ab/compound mixture was incubated for 1 hour at room temperature. A 3× solution of SOS1 and GTP* was prepared in reaction buffer. A […] aliquot of SOS1/GTP* solution was added to reaction well to initiate the exchange reaction. No—SOS1 reaction or max compound concentration was used as blank. IC50 determination was performed using a Sigmoidal dose response (variable slope) equation.

Row | SMILES | GI50 ([1]; Homo sapiens, 72 h) [nM] | GI50 ([2]; Homo sapiens, 72 h) [nM] | pIC50 [3] | GI50 [1] [nM] | GI50 [2] [nM]
1 | CC[C@@H]1C(=O)N(C)c2cnc(Nc3ccc(C(=O)NCCOCCOCCOCCOCCOCCOCCN(C)C/C=C/C(=O)N4CCN(c5nc(OC[C@@H]6CCCN6C)nc6c5CCN(c5cccc7cccc(Cl)c57)C6)C[C@@H]4CC#N)cc3OC)nc2N1C1CCCC1 [Compound I-109, N-[2-[2-[2-[2-[2-[2-[2-[[(E)-4-1[(2S)-4-1[7-(8-chloro-1-naphthyl)-2-[[(2S)-1-methylpyrrolidin-2-yl]methoxy]-6,8-dihydro-5Hpyrido1[3,4-d]pyrimidin-4-yl]-2-(cyanomethyl)piperazin-1-yl]-4-oxo-but-2-enyl]-methylamino]ethoxy]ethoxy]ethoxy]ethoxy]ethoxy]ethoxy]ethyl]-4-[[(7R)-8-cyclopentyl-7-ethyl-5-methyl-6-oxo-7H-pteridin-2-yl]amino]-3-methoxy-benzamide] | 1500 to 5000 | 500 to 1500 | > 7.00 |  | 
2 | CCc1cnn2c(NCc3ccc(OCCOCCOCCOCCOCCOCCOCCN(C)C/C=C/C(=O)N4CCN(c5nc(OC[C@@H]6CCCN6C)nc6c5CCN(c5cccc7cccc(Cl)c57)C6)C[C@@H]4CC#N)nc3)cc(N3CCCC[C@H]3CCO)nc12 [Compound I-94, 2-((S)-4-(7-(8-chloronaphthalen-1-yl)-2-(((S)-1-methylpyrrolidin-2-yl)methoxy) -5,6,7,8-tetrahydropyrido[3,4-d]pyrimidin-4-yl)-1-((E)-1-((5-(((3-ethyl-5-((S)-2-(2-hydroxyethyl)piperidin-1-yl)pyrazolo[1,5-a]pyrimidin-7-yl)amino)methyl)pyridin-2-yl)oxy)-21-methyl-3,6,9,12,15,18-hexaoxa-21-azapentacos-23-en-25-oyl)piperazin-2-yl)acetonitrile] | 1500 to 5000 | 500 to 1500 | > 7.00 |  | 
3 | CCc1cnn2c(NCc3ccc(OCCOCCOCCOCCOCCOCCOCCOCCOCCN(C)C/C=C/C(=O)N4CCN(c5nc(OC[C@@H]6CCCN6C)nc6c5CCN(c5cccc7cccc(Cl)c57)C6)C[C@@H]4CC#N)nc3)cc(N3CCCC[C@H]3CCO)nc12 [Compound I-93, 2-((S)-4-(7-(8-chloronaphthalen-1-yl)-2-(((S)-1-methylpyrrolidin-2-yl)methoxy)-5,6,7,8-tetrahydropyrido[3,4d]pyrimidin4-yl)-1-((E)-1-((5-(((3-ethyl-5-((S)-2-(2-hydroxyethyl)piperidin-1-yl)pyrazolo[1,5-a]pyrimidin-7-yl)amino)methyl)pyridin-2-yl)oxy)-27-methyl-3,6,9,12,15,18,21,24-octaoxa-27-azahentriacont-29-en-31-oyl)piperazin-2-yl)acetonitrile] | 1500 to 5000 | < 500 | > 7.00 |  | 
4 | C=C(F)C(=O)N1CCN(c2nc(OC[C@@H]3CCCN3CCCOCCOCCOCCOCCOCCOCCOCCOCCN(C)C(=O)N3N=C(c4cc(F)ccc4F)S[C@@]3(CCCN)c3ccccc3)nc3c2CCN(c2cccc4cccc(Cl)c24)C3)C[C@@H]1CC#N [Compound I-101] |  |  | > 7.00 | 1500 to 5000 | 1500 to 5000
5 | C=C(F)C(=O)N1CCN(c2nc(OC[C@@H]3CCCN3CCCN3CCN(CCNC(=O)c4ccc(Nc5ncc6c(n5)N(C5CCCC5)[C@H](CC)C(=O)N6C)c(OC)c4)CC3)nc3c2CCN(c2cccc4cccc(Cl)c24)C3)C[C@@H]1CC#N [Compound I-106, N-[2-[4-[3-[(2S)-2-[[7-(8-chloro-1-naphthyl)-4-[(3S)-3-(cyanomethyl)-4-(2-fluoroprop-2-enoyl)piperazin-1-yl]-6,8-dihydro-5H-pyrido[3,4-d]pyrimidin-2-yl]oxymethyl]pyrrolidin-1-yl]propyl]piperazin-1-yl]ethyl]-4-[[(7R)-8-cyclopentyl-7-ethyl-5-methyl-6-oxo-7H-pteridin-2-yl]amino]-3-methoxy-benzamide] | 500 to 1500 | 500 to 1500 | > 7.00 |  | 
